Measured values as given in patent US20230348475A1, “IMIDAZOPYRIDAZINE AND IMIDAZOPYRAZINE COMPOUNDS AS INHIBITORS OF CDK7” (THE TRANSLATIONAL GENOMICS RESEARCH INSTITUTE, priority 2020, published 2023).
Where a name gives a salt, the structure may show the parent alone.

Assays:
[1] = system: MDA-MB-231 breast cancer cell line; test: Cell viability assay (Cell Titer Glo), MDA-MB-231; type: cell-based; settings: Table 7a, breast cancer cell line, 72 hour incubation
Method: (§1) Materials: • Cell Lines (Treated according to ATCC guidelines) • Cell Titer Glo (Promega Cat #G7572) • DMSO • 96-well White Tissue Culture Treated Plates (Perkin Elmer Cat #60005680)
(§2) Cells were seeded in a white 96-well tissue culture treated plate at a density of 1500 cells in 90 μL of media per well and allowed to settle overnight. A ten point serial dilution of drugs was prepared at 10×concentration in media with the final assay concentrations starting at 30 μM, 10 μM, 3 μM, 1 μM, 0.3 μM . . . 0 μM. A dilution of DMSO was included as a control. The assay was set up by adding 10 μL of the corresponding drug to each well in duplicate, followed by a 72 hour incubation at 37° C., 5% CO2. Cell viability was quantified by adding 90 μL of Cell Titer Glo to each well and incubating at room temperature for 10 minutes. The reaction was quantified by measuring luminescence using the Envision Plate Reader. Data was analyzed using Graphpad Prism 7 software.

[2] = system: A2780 ovarian cancer cell line; test: Cell viability assay (Cell Titer Glo), A2780; type: cell-based; settings: 72 hour incubation
Method: as §1, §2

CDK7/CycH/MAT1 = CDK7/CycH/MAT1 (Homo sapiens, UniProt P50613); test: Kinase Glo (ADP-Glo) biochemical assay, CDK7; settings: CDK7/CycH/MAT1 40 ng, ATP 1 μM, 60 minutes at RT, luminescence
Method: Materials: • Assay Buffer: 50 mM HEPES, 3 mM MgCl2, 3 mM MnCl2, 1 mM DTT, 3 μM Na3VO4, pH 7.5 • Substrate RB • CTF Peptide (ProQinase #: 0040-0000-6) • Enzymes • CDK7/CycH/MAT1 (ProQinase #: 0366-0360-4) • ADP-Glo™ Assay (Promega #: V9101) • ATP: 10 mM • ADP-Glo™ Reagent • Kinase Detection Reagent • 384-well white assay plates
A ten point serial dilution of compound was prepared at 5X concentration in assay buffer with the final assay concentrations starting at 30 μM, 10 μM, 3 μM, 1 μM . . . 0 μM. Enzyme, substrate, and ATP were used at 40 ng, 200 ng (or 400 ng)* and 1 μM, respectively. The assay plate was set up by mixing the components in a total reaction volume of 10 μL per well. The plate was centrifuged gently for 10 seconds and incubated at room temperature (RT) for 60 minutes in the dark. The ADP-Glo Reagent and kinase detection reagent were added and incubated as recommended. The reaction was quantified by measuring luminescence on the Perkin Elmer Envision plate reader.

[3] = system: MiaPaCa2 pancreatic cancer cell line; test: Cell viability assay (Cell Titer Glo), MiaPaCa2; type: cell-based; settings: Table 7a, pancreatic cancer cell line, 72 hour incubation
Method: as §1, §2

[4] = system: HPAC pancreatic cancer cell line; test: Cell viability assay (Cell Titer Glo), HPAC; type: cell-based; settings: Table 7a, pancreatic cancer cell line, 72 hour incubation
Method: as §1, §2

[5] = system: Kasumi1 leukemia cancer cell line; test: Cell viability assay (Cell Titer Glo), Kasumi1; type: cell-based; settings: 72 hour incubation
Method: as §1, §2

[6] = system: A673 Ewingsarcoma cell line; test: Cell viability assay (Cell Titer Glo), A673; type: cell-based; settings: 72 hour incubation
Method: as §1, §2

[7] = Homo sapiens, Kasumi 1, Table 7a

Sequence of CDK7/CycH/MAT1 (P50613 whole entry): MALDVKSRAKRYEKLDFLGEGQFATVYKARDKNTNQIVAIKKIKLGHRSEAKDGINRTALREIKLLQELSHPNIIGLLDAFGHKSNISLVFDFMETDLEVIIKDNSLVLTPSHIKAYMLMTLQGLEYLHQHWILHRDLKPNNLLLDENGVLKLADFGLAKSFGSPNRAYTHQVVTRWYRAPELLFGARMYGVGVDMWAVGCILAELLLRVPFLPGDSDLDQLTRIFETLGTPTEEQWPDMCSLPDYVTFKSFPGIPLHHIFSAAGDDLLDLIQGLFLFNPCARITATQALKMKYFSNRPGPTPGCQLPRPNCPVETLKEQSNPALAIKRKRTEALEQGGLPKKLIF
Sequence of CDK7/CycH/MAT1 (P51946 whole entry partner): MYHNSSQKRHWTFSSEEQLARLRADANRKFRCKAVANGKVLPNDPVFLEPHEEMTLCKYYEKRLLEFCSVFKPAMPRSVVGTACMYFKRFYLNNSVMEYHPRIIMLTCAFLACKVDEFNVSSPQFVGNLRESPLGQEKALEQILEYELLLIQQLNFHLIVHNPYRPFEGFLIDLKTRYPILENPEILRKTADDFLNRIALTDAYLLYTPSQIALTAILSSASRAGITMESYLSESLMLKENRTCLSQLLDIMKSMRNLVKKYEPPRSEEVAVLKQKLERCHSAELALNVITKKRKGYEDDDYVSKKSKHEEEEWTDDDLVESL
Sequence of CDK7/CycH/MAT1 (P51948 whole entry partner): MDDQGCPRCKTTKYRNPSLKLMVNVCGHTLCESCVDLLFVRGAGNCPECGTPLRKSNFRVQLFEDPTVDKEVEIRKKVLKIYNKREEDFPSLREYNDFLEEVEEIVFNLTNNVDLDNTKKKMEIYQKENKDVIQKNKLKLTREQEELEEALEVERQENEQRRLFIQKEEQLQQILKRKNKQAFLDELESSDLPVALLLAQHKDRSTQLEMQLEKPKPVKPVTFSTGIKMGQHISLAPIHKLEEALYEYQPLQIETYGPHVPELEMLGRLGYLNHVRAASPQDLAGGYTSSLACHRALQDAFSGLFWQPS

`CC(C)c1cnc2c(NCc3ccccc3C(F)(F)F)cc(SC3CCNCC3)nn12` [Compound 53, 3-isopropyl-6-(piperidin-4-ylthio)-N-(2-(trifluoromethyl)benzyl)imidazo[1,2-b]pyridazin-8-amine hydrochloride] gave an IC50 ([1]; Homo sapiens, MDA-MB-231) of 1 to 5 µM, an IC50 ([2]; Homo sapiens, A2780, Table 7a) of less than 1 µM and an IC50 (CDK7/CycH/MAT1) of less than 100 nM. The IC50 ([3]; Homo sapiens, MIA PaCa-2) was less than 1 µM and the IC50 ([4]; Homo sapiens, HPAC) was less than 1 µM.
Compound `COc1ccccc1CNc1cc(SC2CCCNC2)nn2c(C(C)C)cnc12` (stereo not shown) [Compound 36, hydrochloride] has an IC50 ([1]; Homo sapiens, MDA-MB-231) of 1 to 5 µM, an IC50 [5, 7] of 1 to 5 µM and an IC50 ([2]; Homo sapiens, A2780, Table 7a) of less than 1 µM. It also gave an IC50 (CDK7/CycH/MAT1) of less than 100 nM, an IC50 ([3]; Homo sapiens, MIA PaCa-2) of 1 to 5 µM and an IC50 ([4]; Homo sapiens, HPAC) of 1 to 5 µM. The IC50 ([6]; Homo sapiens, A673, Table 7a) was 1 to 5 µM.
In the case of `CC(C)c1cnc2c(Nc3cccc(F)c3)cc(NC3CCNCC3)nn12` [Compound 45, N8-(3-fluorophenyl)-3-isopropyl-N6-(piperidin-4-yl)imidazo[1,2-b]pyridazine-6,8-diamine hydrochloride], the IC50 ([1]; Homo sapiens, MDA-MB-231) is reported as 1 to 5 µM, the IC50 [5, 7] is reported as 1 to 5 µM and the IC50 ([2]; Homo sapiens, A2780, Table 7a) is reported as 1 to 5 µM. It also gave an IC50 (CDK7/CycH/MAT1) of less than 100 nM, an IC50 ([3]; Homo sapiens, MIA PaCa-2) of less than 1 µM and an IC50 ([4]; Homo sapiens, HPAC) of 1 to 5 µM. The IC50 ([6]; Homo sapiens, A673, Table 7a) was 1 to 5 µM.
`CC(C)c1cnc2c(NCc3ccccc3OC(F)(F)F)cc(NC[C@@H]3CNCCO3)nn12` [Compound 46, (S)-3-isopropyl-N6-(morpholin-2-ylmethyl)-N8-(2-(trifluoromethoxy)benzyl)imidazo[1,2-b]pyridazine-6,8-diamine hydrochloride] showed an IC50 ([1]; Homo sapiens, MDA-MB-231) of 1 to 5 µM, an IC50 [5, 7] greater than 5 µM and an IC50 ([2]; Homo sapiens, A2780, Table 7a) of 1 to 5 µM. The IC50 (CDK7/CycH/MAT1) was less than 100 nM, the IC50 ([3]; Homo sapiens, MIA PaCa-2) was 1 to 5 µM and the IC50 ([4]; Homo sapiens, HPAC) was 1 to 5 µM. The IC50 ([6]; Homo sapiens, A673, Table 7a) was 1 to 5 µM.
Work on `COc1ccccc1CNc1cc(SC2CCNCC2)nn2c(C(C)C)cnc12` [Compound 35, hydrochloride] yielded an IC50 ([1]; Homo sapiens, MDA-MB-231) of 1 to 5 µM, an IC50 [5, 7] of 1 to 5 µM and an IC50 ([2]; Homo sapiens, A2780, Table 7a) of less than 1 µM. The IC50 (CDK7/CycH/MAT1) was less than 100 nM, the IC50 ([3]; Homo sapiens, MIA PaCa-2) was less than 1 µM and the IC50 ([4]; Homo sapiens, HPAC) was less than 1 µM. It also gave an IC50 ([6]; Homo sapiens, A673, Table 7a) of less than 1 µM.
`CC(C)c1cnc2c(NCc3ccccc3N(C)C)cc(SC3CCNCC3)nn12` [Compound 64, N-(2-(dimethylamino)benzyl)-3-isopropyl-6-(piperidin-4-ylthio)imidazo[1,2-b]pyridazin-8-amine hydrochloride] gave an IC50 [5, 7] of less than 1 µM, an IC50 (CDK7/CycH/MAT1) of less than 100 nM and an IC50 ([3]; Homo sapiens, MIA PaCa-2) of less than 1 µM. For the same compound, the IC50 ([4]; Homo sapiens, HPAC) was 1 to 5 µM and the IC50 ([6]; Homo sapiens, A673, Table 7a) was less than 1 µM.
Work on `c1ccc(CNc2cc(SC3CCCNC3)nn3c(C4CC4)cnc23)cc1` (stereo not shown) [Compound 23, N-benzyl-3-cyclopropyl-6-(piperidin-3-ylthio)imidazo[1,2-b]pyridazin-8-amine dihydrochloride salt] yielded an IC50 [1] of 1 to 5 µM, an IC50 ([5]; Table 7a) of 1 to 5 µM and an IC50 ([2]; Table 7a) of 1 to 5 µM. The IC50 (CDK7/CycH/MAT1) was less than 100 nM, the IC50 [3] was 1 to 5 µM and the IC50 [4] was 1 to 5 µM. It also gave an IC50 ([6]; Table 7a) of 1 to 5 µM.
In the case of `CC(C)c1cnc2c(NCc3ccccc3OC(F)(F)F)cc(NC3CCNCC3)nn12` [Compound 38, hydrochloride], the IC50 ([1]; Homo sapiens, MDA-MB-231) is reported as 1 to 5 µM, the IC50 [5, 7] is reported as 1 to 5 µM and the IC50 ([2]; Homo sapiens, A2780, Table 7a) is reported as 1 to 5 µM. The IC50 (CDK7/CycH/MAT1) was less than 100 nM, the IC50 ([3]; Homo sapiens, MIA PaCa-2) was 1 to 5 µM and the IC50 ([4]; Homo sapiens, HPAC) was 1 to 5 µM. The IC50 ([6]; Homo sapiens, A673, Table 7a) was 1 to 5 µM.
Work on `CC(C)c1cnc2c(NCc3ccccc3-n3cccn3)cc(SC3CCNCC3)nn12` [Compound 62, N-(2-(1H-pyrazol-1-yl)benzyl)-3-isopropyl-6-(piperidin-4-ylthio)imidazo[1,2-b]pyridazin-8-amine hydrochloride] yielded an IC50 [5, 7] of less than 1 µM, an IC50 (CDK7/CycH/MAT1) of less than 100 nM and an IC50 ([3]; Homo sapiens, MIA PaCa-2) of less than 1 µM. The IC50 ([4]; Homo sapiens, HPAC) was 1 to 5 µM and the IC50 ([6]; Homo sapiens, A673, Table 7a) was 1 to 5 µM.
Work on `CC(C)c1cnc2c(NCc3ccccc3OC(F)(F)F)cc(SC3CCCNC3)nn12` (stereo not shown) [Compound 37, 3-isopropyl-6-(piperidin-3-ylthio)-N-(2-(trifluoromethoxy)benzyl)imidazo[1,2-b]pyridazin-8-amine] yielded an IC50 ([1]; Homo sapiens, MDA-MB-231) of 1 to 5 µM, an IC50 [5, 7] of 1 to 5 µM and an IC50 ([2]; Homo sapiens, A2780, Table 7a) of 1 to 5 µM. The IC50 (CDK7/CycH/MAT1) was less than 100 nM, the IC50 ([3]; Homo sapiens, MIA PaCa-2) was 1 to 5 µM and the IC50 ([4]; Homo sapiens, HPAC) was 1 to 5 µM. The IC50 ([6]; Homo sapiens, A673, Table 7a) was 1 to 5 µM.
